Measurements: US11987566B2, “Nerve damage preventing and nerve protecting compounds, preparation method thereof, pharmaceutical composition thereof, and their use” (GENHEALTH PHARMA CO., LTD., priority 2022, dated 2024)

Experiments:
[1] = test system: transient focal Middle Cerebral Artery Occlusion/Reperfusion model (MCAO/R model); test: Evaluation of the effect of preventing nerve damage: total infarct volume (TTC staining) in MCAO/R model; format: in vivo, male Sprague Dawley rat; settings: SD rat, 50 mg/kg intraperitoneal once 10 minutes before MCAO/R; 1 hour ischemia, 24 hours blood reperfusion; vehicle group 40.48
Description: Besides the foresaid experimental groups, only pure solvent used was treated as vehicle group, and a sham group, which was not administrated with any compound or solvent or with nylon monofilament to cause obstruction and ischemia, was also included. In this test example, transient focal Middle Cerebral Artery Occlusion/Reperfusion model (MCAO/R model) was adopted to simulate ischemic stroke for evaluating the subsequent nerve damage. Specifically, male Sprague Dawley rat (SD rat) was adopted and anaesthetized with 2% isoflurane, and then the right common carotid artery, external carotid artery and internal carotid artery were distinguished among them from the neck. Next, a nylon monofilament with length of 22 millimeters (mm), size number of 4/0 and capped with polysiloxane was inserted into the external carotid artery and along with the […] to the circle of Willis to induce obstruction and ischemia in the middle cerebral artery. After causing obstruction and ischemia for 1 hour, the nylon monofilament was removed to allow the blood recirculated to the brain, in other words, to undergo blood reperfusion. After blood reperfusion for 24 hours, the rat was sacrificed and the brain thereof was placed into a cooled 0.95% saline. […] Afterward, the sliced brain tissues were stained with a 4% […] solution, and then MacroPATH Digital Imaging System was used to record the images and the obtained images were analyzed by ImageJ 1.52a to count the infarct volume percent, which could represent the degree of nerve damage. The foresaid infarct volume percent was obtained by adding the values acquired by multiplying the proportion of infarct area of each sliced brain tissue with their thickness, and the proportion of infarct area was calculated by the equation: (B−A)/B×100%; wherein, “A” represented the undamaged area in the damaged cerebral hemisphere on the right side, and “B” represented the total area of the undamaged cerebral hemisphere on the left side. […]

[2] = test system: transient focal Middle Cerebral Artery Occlusion/Reperfusion model (MCAO/R model); test: Neurobehavioral evaluation (Bederson classification) after MCAO/R; settings: Bederson Grade 0-4, SD rat, 50 mg/kg intraperitoneal, vehicle group 2.80

| Compound | Total infarct volume percent (%) [1] | Grade (neurobehavioral evaluation), time point of 0.5-hour after blood reperfusion [2] | Grade (neurobehavioral evaluation), time point of 1.5-hour after blood reperfusion [2] | Grade (neurobehavioral evaluation), time point of 24-hour after blood reperfusion ([2]; 24 hour after blood reperfusion) |
| --- | --- | --- | --- | --- |
| COc1c(C)c(CC=C(C)C)c(OC)c2c1OCO2 [Example 1] | 28.82% | 2.60 | 2.80 | 2.60 |
| COc1cc(COC(C)=O)c(OC)c2c1OCO2 [Example 3] | 17.13% | 2.80 | 2.60 | – |
| COc1cc(CC=C(C)C)c(OC)c2c1OCO2 [Example 4] | 16.4% | 2.60 | 2.60 | – |
